Laboratory results published in paper doi:10.1101/2025.01.28.635346v1 (bioRxiv, 2025).
Bridge positions count the residues as written; N and C are the ends. Side chains are listed from the residue outwards. Peptide text beside a SMILES is read from it. * marks the point of attachment. Butanoyl(4-(4-I-phenyl)) = O=C(CCCc1ccc(I)cc1)*; PEG2 = NCCOCCOCCC(=O)O

Experiments:
Conditions in all cases: for Emax: read-out: Max Response
ADRA1A = target: T1, ADRA1A (Homo sapiens, UniProt P35348); assay: Safetyscan47 GPCR Calcium Flux, Agonist; type: cell-based
T1 sequence (P35348 1-466): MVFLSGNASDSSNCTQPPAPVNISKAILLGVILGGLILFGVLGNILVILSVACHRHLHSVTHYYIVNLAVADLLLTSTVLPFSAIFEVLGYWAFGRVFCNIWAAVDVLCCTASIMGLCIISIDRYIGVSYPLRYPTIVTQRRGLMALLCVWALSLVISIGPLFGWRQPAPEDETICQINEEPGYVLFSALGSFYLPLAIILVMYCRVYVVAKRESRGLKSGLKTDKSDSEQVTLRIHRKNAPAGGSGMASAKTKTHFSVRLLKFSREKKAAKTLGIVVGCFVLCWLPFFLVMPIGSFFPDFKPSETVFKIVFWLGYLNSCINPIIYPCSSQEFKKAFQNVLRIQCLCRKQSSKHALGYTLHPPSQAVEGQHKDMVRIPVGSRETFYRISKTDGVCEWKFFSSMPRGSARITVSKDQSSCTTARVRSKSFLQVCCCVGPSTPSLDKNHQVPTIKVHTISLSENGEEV

HTR2A = HTR2A (Homo sapiens, UniProt P28223); assay: Safetyscan47 GPCR Calcium Flux, Agonist; type: cell-based
Chain of HTR2A (P28223 whole entry): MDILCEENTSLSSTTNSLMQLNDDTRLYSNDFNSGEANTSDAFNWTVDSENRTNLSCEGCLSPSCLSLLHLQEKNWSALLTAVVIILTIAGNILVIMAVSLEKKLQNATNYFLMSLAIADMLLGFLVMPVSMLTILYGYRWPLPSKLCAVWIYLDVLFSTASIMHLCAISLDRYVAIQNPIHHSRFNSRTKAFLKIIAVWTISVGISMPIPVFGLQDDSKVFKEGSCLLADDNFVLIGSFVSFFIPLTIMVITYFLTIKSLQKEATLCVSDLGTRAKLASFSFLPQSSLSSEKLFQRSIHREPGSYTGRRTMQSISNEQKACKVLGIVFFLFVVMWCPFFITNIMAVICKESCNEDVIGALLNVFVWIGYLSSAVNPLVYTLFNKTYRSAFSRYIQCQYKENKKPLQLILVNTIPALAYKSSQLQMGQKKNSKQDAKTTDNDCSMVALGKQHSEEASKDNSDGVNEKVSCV

ADORA2A = ADORA2A (Homo sapiens, UniProt P29274); assay: Safetyscan47 GPCR Calcium Flux, Antagonist; type: cell-based
Chain of ADORA2A (P29274 whole entry): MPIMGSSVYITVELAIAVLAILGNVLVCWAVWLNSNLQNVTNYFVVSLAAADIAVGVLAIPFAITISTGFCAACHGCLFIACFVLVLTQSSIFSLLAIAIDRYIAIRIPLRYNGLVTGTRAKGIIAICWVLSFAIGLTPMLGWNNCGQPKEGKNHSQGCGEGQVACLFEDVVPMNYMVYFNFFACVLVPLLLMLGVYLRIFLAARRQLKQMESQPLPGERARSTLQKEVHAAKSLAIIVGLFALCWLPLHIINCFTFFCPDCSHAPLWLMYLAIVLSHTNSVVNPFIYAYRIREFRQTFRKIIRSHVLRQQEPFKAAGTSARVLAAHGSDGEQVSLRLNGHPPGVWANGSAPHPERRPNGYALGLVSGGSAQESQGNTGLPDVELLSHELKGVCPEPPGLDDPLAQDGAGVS

EDNRA = target: T2, EDNRA (Homo sapiens, UniProt P25101); assay: Safetyscan47 GPCR Calcium Flux, Antagonist; type: cell-based
T2 sequence (P25101 21-427): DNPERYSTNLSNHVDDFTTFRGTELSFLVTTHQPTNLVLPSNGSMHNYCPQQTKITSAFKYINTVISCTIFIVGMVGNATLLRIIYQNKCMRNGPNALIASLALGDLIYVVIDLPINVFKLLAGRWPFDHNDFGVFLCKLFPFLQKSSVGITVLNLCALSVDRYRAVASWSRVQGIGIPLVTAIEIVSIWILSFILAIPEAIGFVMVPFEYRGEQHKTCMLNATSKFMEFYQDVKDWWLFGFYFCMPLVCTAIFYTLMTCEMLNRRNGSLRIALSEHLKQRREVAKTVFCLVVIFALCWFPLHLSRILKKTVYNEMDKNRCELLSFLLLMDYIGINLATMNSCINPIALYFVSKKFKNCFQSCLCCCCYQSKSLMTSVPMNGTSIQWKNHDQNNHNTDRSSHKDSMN

HRH1 = HRH1 (Homo sapiens, UniProt P35367); assay: Safetyscan47 GPCR Calcium Flux, Antagonist; type: cell-based
Chain of HRH1 (P35367 whole entry): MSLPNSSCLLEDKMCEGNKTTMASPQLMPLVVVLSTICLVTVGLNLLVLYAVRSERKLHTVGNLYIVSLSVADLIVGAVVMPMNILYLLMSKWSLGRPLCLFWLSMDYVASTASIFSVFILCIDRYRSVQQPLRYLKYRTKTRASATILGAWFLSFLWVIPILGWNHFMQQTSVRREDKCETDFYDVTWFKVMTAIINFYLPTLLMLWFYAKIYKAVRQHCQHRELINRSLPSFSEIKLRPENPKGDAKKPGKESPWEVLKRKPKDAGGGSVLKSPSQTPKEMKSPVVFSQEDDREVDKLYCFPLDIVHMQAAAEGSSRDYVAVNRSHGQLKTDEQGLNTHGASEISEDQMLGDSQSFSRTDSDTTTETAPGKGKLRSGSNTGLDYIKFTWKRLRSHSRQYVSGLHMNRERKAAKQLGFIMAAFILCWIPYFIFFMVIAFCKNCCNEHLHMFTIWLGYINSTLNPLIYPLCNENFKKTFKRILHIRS

OPRD1 = OPRD1 (Homo sapiens, UniProt P41143); assay: Safetyscan47 GPCR cAMP, Agonist; type: cell-based
Chain of OPRD1 (P41143 whole entry): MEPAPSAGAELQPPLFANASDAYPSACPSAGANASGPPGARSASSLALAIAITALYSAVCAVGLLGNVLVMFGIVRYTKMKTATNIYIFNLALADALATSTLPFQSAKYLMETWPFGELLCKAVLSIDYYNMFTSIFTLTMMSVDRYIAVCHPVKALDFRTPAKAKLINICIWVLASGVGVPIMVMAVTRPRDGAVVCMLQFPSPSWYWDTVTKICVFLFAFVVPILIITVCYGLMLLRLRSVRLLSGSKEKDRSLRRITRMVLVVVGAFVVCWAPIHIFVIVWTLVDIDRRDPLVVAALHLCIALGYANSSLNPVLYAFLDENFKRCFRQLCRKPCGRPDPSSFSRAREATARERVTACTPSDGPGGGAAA

ADRB2 = ADRB2 (Homo sapiens, UniProt P07550); assay: Safetyscan47 GPCR cAMP, Antagonist; type: cell-based
Chain of ADRB2 (P07550 whole entry): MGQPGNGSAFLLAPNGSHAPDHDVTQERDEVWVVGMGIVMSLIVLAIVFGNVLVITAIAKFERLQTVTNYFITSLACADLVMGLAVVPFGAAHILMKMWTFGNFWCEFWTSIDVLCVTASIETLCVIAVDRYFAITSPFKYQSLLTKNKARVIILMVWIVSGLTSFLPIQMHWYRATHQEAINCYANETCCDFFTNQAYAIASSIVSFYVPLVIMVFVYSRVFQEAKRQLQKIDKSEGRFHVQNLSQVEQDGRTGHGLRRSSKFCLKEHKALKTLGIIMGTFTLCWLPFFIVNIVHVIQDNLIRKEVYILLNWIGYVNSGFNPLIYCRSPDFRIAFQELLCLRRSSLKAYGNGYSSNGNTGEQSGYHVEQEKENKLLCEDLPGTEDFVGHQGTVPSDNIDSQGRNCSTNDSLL

CNR1 = CNR1 (Homo sapiens, UniProt P21554); assay: Safetyscan47 GPCR cAMP, Antagonist; type: cell-based
GABAA = GABAA (Homo sapiens, UniProt P14867+P18507+P47870); assay: Safetyscan47 Ion Channel, Blocker; type: cell-based
HTR3A = target: T3, HTR3A (Homo sapiens, UniProt P46098); assay: Safetyscan47 Ion Channel, Blocker; type: cell-based
T3 sequence (P46098 24-478): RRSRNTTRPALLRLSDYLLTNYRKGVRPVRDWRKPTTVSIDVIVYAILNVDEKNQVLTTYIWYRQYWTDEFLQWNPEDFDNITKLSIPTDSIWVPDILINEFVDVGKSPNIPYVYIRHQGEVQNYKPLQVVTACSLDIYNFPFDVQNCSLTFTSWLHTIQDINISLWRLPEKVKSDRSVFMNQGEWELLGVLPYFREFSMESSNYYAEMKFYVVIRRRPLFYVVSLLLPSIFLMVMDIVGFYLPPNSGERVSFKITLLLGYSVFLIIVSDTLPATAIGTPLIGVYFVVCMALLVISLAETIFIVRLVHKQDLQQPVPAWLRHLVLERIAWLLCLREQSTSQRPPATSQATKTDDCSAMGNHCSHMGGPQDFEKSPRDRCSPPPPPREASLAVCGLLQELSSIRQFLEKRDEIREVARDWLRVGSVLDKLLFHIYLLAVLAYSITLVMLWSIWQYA

NMDAR (1A/2B) = NMDAR (1A/2B) (Homo sapiens, UniProt Q05586+Q13224); assay: Safetyscan47 Ion Channel, Opener; type: cell-based
Chain of NMDAR (1A/2B) (Q13224 27-1484, other chains not shown): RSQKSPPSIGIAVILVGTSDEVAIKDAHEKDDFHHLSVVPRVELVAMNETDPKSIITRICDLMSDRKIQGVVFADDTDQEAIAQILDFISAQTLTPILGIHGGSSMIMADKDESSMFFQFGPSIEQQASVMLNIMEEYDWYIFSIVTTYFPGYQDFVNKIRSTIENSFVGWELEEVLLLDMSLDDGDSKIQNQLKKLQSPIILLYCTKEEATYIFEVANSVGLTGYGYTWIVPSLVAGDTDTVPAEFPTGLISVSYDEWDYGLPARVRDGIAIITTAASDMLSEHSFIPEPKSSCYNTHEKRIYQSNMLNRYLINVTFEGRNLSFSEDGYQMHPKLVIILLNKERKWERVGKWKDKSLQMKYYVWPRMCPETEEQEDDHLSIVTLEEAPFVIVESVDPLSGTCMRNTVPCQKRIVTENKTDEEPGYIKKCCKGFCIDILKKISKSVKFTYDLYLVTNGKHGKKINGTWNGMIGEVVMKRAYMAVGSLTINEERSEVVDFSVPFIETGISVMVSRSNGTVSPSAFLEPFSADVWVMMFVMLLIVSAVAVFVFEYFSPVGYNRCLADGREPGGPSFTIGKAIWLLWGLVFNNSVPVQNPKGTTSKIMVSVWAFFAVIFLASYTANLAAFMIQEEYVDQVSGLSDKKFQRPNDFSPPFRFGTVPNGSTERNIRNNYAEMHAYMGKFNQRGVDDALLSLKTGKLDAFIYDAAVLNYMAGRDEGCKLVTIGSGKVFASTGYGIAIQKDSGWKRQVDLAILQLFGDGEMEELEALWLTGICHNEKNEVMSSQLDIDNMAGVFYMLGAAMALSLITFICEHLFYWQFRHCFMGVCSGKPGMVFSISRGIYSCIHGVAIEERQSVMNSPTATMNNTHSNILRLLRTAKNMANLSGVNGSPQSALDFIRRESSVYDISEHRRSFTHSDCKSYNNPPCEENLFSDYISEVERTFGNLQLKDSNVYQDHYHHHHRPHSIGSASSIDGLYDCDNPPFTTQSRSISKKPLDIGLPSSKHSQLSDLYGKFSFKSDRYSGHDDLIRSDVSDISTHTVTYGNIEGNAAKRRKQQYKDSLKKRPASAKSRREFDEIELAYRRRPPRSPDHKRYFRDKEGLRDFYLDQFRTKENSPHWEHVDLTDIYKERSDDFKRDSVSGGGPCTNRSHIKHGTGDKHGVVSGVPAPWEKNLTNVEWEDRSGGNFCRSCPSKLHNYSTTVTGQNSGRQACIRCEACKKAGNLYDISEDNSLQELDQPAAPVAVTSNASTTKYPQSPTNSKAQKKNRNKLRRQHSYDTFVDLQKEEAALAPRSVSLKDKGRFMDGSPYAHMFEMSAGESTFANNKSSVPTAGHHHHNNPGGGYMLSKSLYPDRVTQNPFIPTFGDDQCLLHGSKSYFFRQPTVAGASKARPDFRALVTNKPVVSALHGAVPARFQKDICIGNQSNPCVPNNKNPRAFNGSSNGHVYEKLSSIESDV

PDE3A = PDE3A (Homo sapiens, UniProt Q14432); assay: Safetyscan47 Non-Kinase Enzymes Enzymatic, Inhibitor; type: biochemical
DAT = DAT (Homo sapiens, UniProt Q01959); assay: Safetyscan47 Transporter, Blocker; type: cell-based
Chain of DAT (Q01959 whole entry): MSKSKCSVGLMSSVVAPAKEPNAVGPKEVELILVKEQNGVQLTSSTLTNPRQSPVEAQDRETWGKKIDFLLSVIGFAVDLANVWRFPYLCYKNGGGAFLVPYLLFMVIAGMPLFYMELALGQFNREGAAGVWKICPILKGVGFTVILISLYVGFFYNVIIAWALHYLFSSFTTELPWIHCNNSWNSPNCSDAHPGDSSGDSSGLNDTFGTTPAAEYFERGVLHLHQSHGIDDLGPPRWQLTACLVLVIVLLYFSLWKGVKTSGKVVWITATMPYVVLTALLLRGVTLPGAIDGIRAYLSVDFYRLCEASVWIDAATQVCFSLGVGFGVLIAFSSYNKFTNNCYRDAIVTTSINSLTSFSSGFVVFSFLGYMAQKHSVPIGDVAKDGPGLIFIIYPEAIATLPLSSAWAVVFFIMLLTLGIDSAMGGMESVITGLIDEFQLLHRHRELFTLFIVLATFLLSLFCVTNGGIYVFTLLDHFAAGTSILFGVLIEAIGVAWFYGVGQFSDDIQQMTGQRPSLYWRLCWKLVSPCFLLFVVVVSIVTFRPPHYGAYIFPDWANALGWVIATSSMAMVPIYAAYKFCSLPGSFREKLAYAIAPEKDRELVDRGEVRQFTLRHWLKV

NET = NET (Homo sapiens, UniProt P23975); assay: Safetyscan47 Transporter, Blocker; type: cell-based
Chain of NET (P23975 whole entry): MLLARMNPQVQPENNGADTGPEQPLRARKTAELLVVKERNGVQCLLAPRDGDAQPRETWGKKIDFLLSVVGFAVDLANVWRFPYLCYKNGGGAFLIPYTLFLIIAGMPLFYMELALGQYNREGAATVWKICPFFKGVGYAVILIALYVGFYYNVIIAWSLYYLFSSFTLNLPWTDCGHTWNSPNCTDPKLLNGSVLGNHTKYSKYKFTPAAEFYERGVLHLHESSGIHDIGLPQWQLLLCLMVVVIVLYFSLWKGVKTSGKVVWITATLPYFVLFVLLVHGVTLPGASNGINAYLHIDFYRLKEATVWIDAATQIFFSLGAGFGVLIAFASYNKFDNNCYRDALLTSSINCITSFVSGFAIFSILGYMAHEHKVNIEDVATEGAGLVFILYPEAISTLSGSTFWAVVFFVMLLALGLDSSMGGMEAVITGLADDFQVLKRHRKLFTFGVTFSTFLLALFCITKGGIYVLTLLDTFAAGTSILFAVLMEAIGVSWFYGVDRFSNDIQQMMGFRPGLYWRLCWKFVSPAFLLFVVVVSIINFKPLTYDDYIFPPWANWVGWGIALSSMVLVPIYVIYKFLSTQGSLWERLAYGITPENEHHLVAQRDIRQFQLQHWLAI

CC[C@H](C)[C@H](NC(=O)[C@H](CC(C)C)NC(=O)[C@H](CC(=O)O)NC(=O)CNC(=O)[C@H](CCCNC(=N)N)NC(=O)[C@@H](NC(=O)[C@H](Cc1ccccc1)NC(=O)[C@H](Cc1ccc(O)cc1)NC(=O)[C@@H]1CCC(=O)NCC(=O)NCC(=O)N[C@@H](CCCNC(=N)N)C(=O)NCC(=O)N[C@@H](Cc2c[nH]cn2)C(=O)N[C@@H](C(C)C)C(=O)N2CCC[C@H]2C(=O)N1)C(C)C)C(=O)N[C@@H](CO)C(=O)N[C@@H](Cc1ccccc1)C(=O)N[C@@H](Cc1ccc(O)cc1)C(=O)N[C@@H](CCCCNC(=O)CCOCCOCCNC(=O)CCCc1ccc(I)cc1)C(=O)O [lassotide 47] (GGRGHVPEYFVRGDLISFYK([PEG2-Butanoyl(4-(4-I-phenyl))])-OH; lactam N-8)
EC50 (ADRA1A): > 45 µM | Emax (ADRA1A): 0.52% | EC50 (HTR2A): > 45 µM | Emax (HTR2A): 3.54% | IC50 (ADORA2A): > 45 µM | Emax (ADORA2A): 7.44% | IC50 (EDNRA): > 45 µM | Emax (EDNRA): 0% | IC50 (HRH1): > 45 µM | Emax (HRH1): 0% | EC50 (OPRD1): > 45 µM | Emax (OPRD1): 17.4% | IC50 (ADRB2): > 45 µM | Emax (ADRB2): 32.8% | IC50 (CNR1): > 45 µM | Emax (CNR1): 0% | IC50 (GABAA): > 45 µM | Emax (GABAA): 0% | IC50 (HTR3A): > 45 µM | Emax (HTR3A): 9.38% | EC50 (NMDAR (1A/2B)): > 45 µM | Emax (NMDAR (1A/2B)): 3.52% | IC50 (PDE3A): > 45 µM | Emax (PDE3A): 0.63% | IC50 (DAT): > 45 µM | Emax (DAT): 13% | IC50 (NET): > 45 µM | Emax (NET): 0%

CC[C@H](C)[C@H](NC(=O)[C@H](CC(C)C)NC(=O)[C@H](CC(=O)O)NC(=O)CNC(=O)[C@H](CCCNC(=N)N)NC(=O)[C@@H](NC(=O)[C@H](Cc1ccccc1)NC(=O)[C@H](Cc1ccc(O)cc1)NC(=O)[C@@H]1CCC(=O)NCC(=O)NCC(=O)N[C@@H](CCCNC(=N)N)C(=O)NCC(=O)N[C@@H](Cc2c[nH]cn2)C(=O)N[C@@H](C(C)C)C(=O)N2CCC[C@H]2C(=O)N1)C(C)C)C(=O)N[C@@H](CO)C(=O)N[C@@H](Cc1ccccc1)C(=O)N[C@@H](Cc1ccc(O)cc1)C(=O)N[C@@H](CCCCN)C(=O)O [lassotide 36] (GGRGHVPEYFVRGDLISFYK-OH; lactam N-8)
EC50 (ADRA1A): > 45 µM | Emax (ADRA1A): 2.01% | EC50 (HTR2A): > 45 µM | Emax (HTR2A): 1.7% | IC50 (ADORA2A): > 45 µM | Emax (ADORA2A): 0% | IC50 (EDNRA): > 45 µM | Emax (EDNRA): 2.52% | IC50 (HRH1): > 45 µM | Emax (HRH1): 0.3% | EC50 (OPRD1): > 45 µM | Emax (OPRD1): 6.18% | IC50 (ADRB2): > 45 µM | Emax (ADRB2): 8.93% | IC50 (CNR1): > 45 µM | Emax (CNR1): 9.79% | IC50 (GABAA): > 45 µM | Emax (GABAA): 0% | IC50 (HTR3A): > 45 µM | Emax (HTR3A): 8.73% | EC50 (NMDAR (1A/2B)): > 45 µM | Emax (NMDAR (1A/2B)): 4.66% | IC50 (PDE3A): > 45 µM | Emax (PDE3A): 0% | IC50 (DAT): > 45 µM | Emax (DAT): 29.8% | IC50 (NET): > 45 µM | Emax (NET): 0.35%
